Measured values: patent publication EP1935887A1, “Heterocyclic substituted carbonyl derivatives and their use as dopamine D3 receptor ligands” (Aventis Pharmaceuticals Inc., priority 2001, dated 2002)

What follows are molecules tested against T1, Cloned Human Dopamine D3 Receptors (Homo sapiens, UniProt P35462) (assay: [N-Methyl-3H]Spiroperidol binding to cloned human dopamine D3 receptors). Settings: Table 2; unit inferred; read-out: d3Ki.
T1 construct: expressed in transfected cells; membrane homogenate
From the text: [N-Methyl-^3H]Spiroperidol Binding to Cloned Human Dopamine D3 Receptors
This assay measures the in vitro activity of compounds on cloned human dopamine (D3) receptors and predicts the direct dopamine-blocking properties of putative neuropsychiatric agents at human dopamine D3 receptors.
The D3 gene was isolated from a human striatal cDNA library (Stratagene). The gene was sequenced and sub-cloned into the expression vector RC/RSV (Invitrogen). CHO (Chinese Hamster Ovary) cells were stably transfected with 10 µg of the D3/RSV plasmid using the DOTAP method from Boehringer Mannheim and 72 clones that were G418 resistant were isolated. Using mRNA and binding displacement data a single high expressing clone was identified. This clone was then grown in large batches for the purpose of developing a 96 well format assay.
• 1. One plate (10 cm) with approximately 2-3 million D3 cells per plate is incubated with 1 ml of Trypsin-EDTA at room temperature for -2 min or until cells have lifted off plates. Four ml of Ham's F12 + 10% Fetal Bovine Serum + 1% Penicillin/Streptomycin + G418 (400 µg/ml) medium are added to resuspend cells and 1 ml of this is added to each large plate (15 cm) containing 19 ml of the same medium as mentioned above. • 2. The 5 large plates are incubated at 37°C + 5% CO2 for - 3 days or until the cells are confluent. • 3. After these plates are confluent, they are split into 10 large plates. Medium is aspirated off, 2 ml of Trypsin-EDTA are added to each plate and plates are incubated at RT for 2 min or until cells have lifted off the plate. Eight ml of the F12 medium (same medium as #1 above) are added to each plate (10 ml total) to resuspend the cells and 5 ml are transferred to the 2 new plates containing 15 ml of the F12 media. • 4. The 10 large plates are incubated at 37°C + 5% CO2 for ∼ 2 days or until the cells are confluent. • 5. The 10 large plates are split into 60 large plates (using Trypsin-EDTA as #3 except 4 ml of F12 medium are added to resuspend cells and 1 ml is aliquoted to 6 new plates containing 19 ml of F12 medium each). • 6. Plates are incubated at 37°C + 5% CO2 for - 3 days or until cell are confluent. • 7. The 60 large plates are then split into 60 roller bottles (100-150 million cells/bottle). Medium is aspirated off , 2 ml of Trypsin-EDTA are added to each plate and incubated at RT for -2 minutes or until cells have lifted off plates. Eight ml of F12 medium are added to each plate to resuspend cells and the entire 10 ml are added to 1 roller bottle containing 90 ml of the F12 medium. • 8. The 60 roller bottles are immediately placed on their sides and transferred to the roller bottle incubator. They are incubated at 37°C + 5% CO2 for ~ 3-5 days. Cells are spun at 30-40% motor speed in the Forma incubator. • 9. Medium is poured off and cells are washed 2X in PBS. • 10. Cells are then scraped off in 20 ml of PBS and the bottles are rinsed again with 5 ml of PBS to remove any remaining cells. Cells are stored on ice before membrane prepration. • 11. The yield for 60 D3 roller bottles has varied from - 260-500 mg. Note: All tissue culture reagents are from Gibco-BRL.
The cells are harvested into 250 ml centrifuge tubes with 100 volumes of cold phosphate buffered saline (PBS) and spun down (1200xG for 10 min at 4°C). The medium is removed and 100 ml PBS are added to each centrifuge tube, cells are resuspened and spun down again. The PBS is removed and the final pellet is homogenized in an appropriate volume of 10% DMSO with a polytron on ice at a medium setting.
A 200 µl sample membrane homogenate is added to 200 µl of 1% SDS, vortexed and allowed to stand for 5 min. Aliquots (25, 50 and 100 µl) of this mixture are assayed in duplicate following the standard Bio-Rad DC protein assay protocol (kit catalog number 500-0112) and using reagent S. Absorbance readings are made at 750 nm (note: the most accurate protein OD readings are between 0.1-0.5 units). […]

T1 sequence (P35462 whole entry): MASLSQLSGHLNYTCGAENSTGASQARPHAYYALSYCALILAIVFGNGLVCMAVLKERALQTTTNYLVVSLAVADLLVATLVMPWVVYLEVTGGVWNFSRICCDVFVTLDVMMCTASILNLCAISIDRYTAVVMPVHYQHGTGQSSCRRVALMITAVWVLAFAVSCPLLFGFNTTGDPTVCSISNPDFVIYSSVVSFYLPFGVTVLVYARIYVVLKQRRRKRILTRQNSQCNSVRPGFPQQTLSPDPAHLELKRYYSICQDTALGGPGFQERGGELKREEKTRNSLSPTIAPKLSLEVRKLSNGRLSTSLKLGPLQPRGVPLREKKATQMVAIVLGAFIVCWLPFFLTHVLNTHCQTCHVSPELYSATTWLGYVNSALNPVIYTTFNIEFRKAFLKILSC

Ki [nM]	SMILES
21.2	CN(C(=O)CCCCN1CCN(c2csc3cc(F)ccc23)CC1)c1ccccc1F [compound 822139]
12.8	CN(C(=O)CCCCN1CCN(c2csc3cc(F)ccc23)CC1)c1ccc(C(C)(C)C)cc1 [compound 822140]
39.1	CN(C(=O)CCCCN1CCN(c2csc3cc(F)ccc23)CC1)c1cccc(Oc2ccccc2)c1 [compound 822142]
338	O=C(CCCCN1CCN(c2csc3cc(F)ccc23)CC1)N(Cc1ccccc1)c1cccc(Oc2ccccc2)c1 [compound 822143]
144	COc1ccc(N(C)C(=O)CCCN2CCN(c3csc4cc(F)ccc34)CC2)cc1 [compound 822144]
176	O=C(CCCN1CCN(c2csc3cc(F)ccc23)CC1)Nc1cccc2ccccc12 [compound 822145]
217	CC(C)(C)c1ccc(NC(=O)CCCN2CCN(c3csc4cc(F)ccc34)CC2)cc1 [compound 822147]
41.4	O=C(CCCN1CCN(c2csc3cc(F)ccc23)CC1)Nc1cccc(Oc2ccccc2)c1 [compound 822148]
8.1	O=C(NC1CC1)[C@@H]1C[C@H]1CN1CCN(c2csc3cc(C(F)(F)F)ccc23)CC1 [compound 822202]
30	O=C(NCc1cccnc1)[C@@H]1C[C@H]1CN1CCN(c2csc3cc(C(F)(F)F)ccc23)CC1 [compound 822203]
12.6	O=C(NCc1ccc2c(c1)OCO2)[C@@H]1C[C@H]1CN1CCN(c2csc3cc(C(F)(F)F)ccc23)CC1 [compound 822204]
137	CC1C(CN2CCN(c3csc4cc(C(F)(F)F)ccc34)CC2)C1C(=O)NC1CCC1 (stereo not drawn) [compound 825857]
130	CC1C(CN2CCN(c3csc4cc(C(F)(F)F)ccc34)CC2)C1C(=O)NC1CCCCC1 (stereo not drawn) [compound 825860]
137	CC1C(CN2CCN(c3csc4cc(C(F)(F)F)ccc34)CC2)C1C(=O)NCc1ccc(N(C)C)cc1 (stereo not drawn) [compound 825871]
104	CC1[C@@H](CN2CCN(c3csc4cc(C(F)(F)F)ccc34)CC2)[C@@H]1C(=O)NCC1CC1 (stereo partly drawn) [compound 825872]
186	C[C@@]1(C(=O)NCc2ccc3ccccc3c2)C[C@H]1CN1CCN(c2csc3cc(C(F)(F)F)ccc23)CC1 [compound 825882]
40.2	C[C@@]1(C(=O)NCc2ccc3c(c2)OCO3)C[C@H]1CN1CCN(c2csc3cc(C(F)(F)F)ccc23)CC1 [compound 825886]
90.4	C[C@@]1(C(=O)NCc2nc3ccccc3[nH]2)C[C@H]1CN1CCN(c2csc3cc(C(F)(F)F)ccc23)CC1 [compound 825887]
89.4	COc1cc(CNC(=O)[C@]2(C)C[C@H]2CN2CCN(c3csc4cc(C(F)(F)F)ccc34)CC2)cc(OC)c1OC [compound 825888]
73.8	C[C@@]1(C(=O)NC2CC2)C[C@H]1CN1CCN(c2csc3cc(C(F)(F)F)ccc23)CC1 [compound 825893]

Ki [nM]	SMILES
59	CN(C)c1ccc(CNC(=O)[C@]2(C)C[C@H]2CN2CCN(c3csc4cc(C(F)(F)F)ccc34)CC2)cc1 [compound 825894]
31.7	C[C@@]1(C(=O)NCC2CC2)C[C@H]1CN1CCN(c2csc3cc(C(F)(F)F)ccc23)CC1 [compound 825895]
53.3	C[C@@]1(C(=O)NCc2ccccc2)C[C@H]1CN1CCN(c2csc3cc(C(F)(F)F)ccc23)CC1 [compound 825896]
140	C[C@@]1(C(=O)NCc2ccco2)C[C@H]1CN1CCN(c2csc3cc(C(F)(F)F)ccc23)CC1 [compound 825897]
49	C[C@@]1(C(=O)NCc2cccs2)C[C@H]1CN1CCN(c2csc3cc(C(F)(F)F)ccc23)CC1 [compound 825898]
42.9	C[C@@]1(C(=O)NCc2ccc(C(F)(F)F)cc2)C[C@H]1CN1CCN(c2csc3cc(C(F)(F)F)ccc23)CC1 [compound 825899]
175	O=C(NCc1ccccn1)[C@@H]1C[C@H]1CN1CCN(c2csc3cc(C(F)(F)F)ccc23)CC1 [compound 826065]
60.3	CN(C)c1ccc(CNC(=O)[C@@H]2C[C@H]2CN2CCN(c3csc4cc(C(F)(F)F)ccc34)CC2)cc1 [compound 826066]
19.3	O=C(NCC1CC1)[C@@H]1C[C@H]1CN1CCN(c2csc3cc(C(F)(F)F)ccc23)CC1 [compound 826067]
54.6	O=C(NCc1ccccc1)[C@@H]1C[C@H]1CN1CCN(c2csc3cc(C(F)(F)F)ccc23)CC1 [compound 826068]
27.2	O=C(NCc1ccco1)[C@@H]1C[C@H]1CN1CCN(c2csc3cc(C(F)(F)F)ccc23)CC1 [compound 826069]
12.6	O=C(NCc1cccs1)[C@@H]1C[C@H]1CN1CCN(c2csc3cc(C(F)(F)F)ccc23)CC1 [compound 826070]
165	O=C(NCc1ccc(C(F)(F)F)cc1)[C@@H]1C[C@H]1CN1CCN(c2csc3cc(C(F)(F)F)ccc23)CC1 [compound 826071]
62.6	Cc1cccc(CNC(=O)[C@@H]2C[C@H]2CN2CCN(c3csc4cc(C(F)(F)F)ccc34)CC2)c1 [compound 826072]
32.3	O=C(NC1CCC1)[C@@H]1C[C@H]1CN1CCN(c2csc3cc(C(F)(F)F)ccc23)CC1 [compound 826073]
72.6	C[C@H](NC(=O)[C@@H]1C[C@H]1CN1CCN(c2csc3cc(C(F)(F)F)ccc23)CC1)c1ccccc1 [compound 826074]
55.6	O=C(NCc1cccc2ccccc12)[C@@H]1C[C@H]1CN1CCN(c2csc3cc(C(F)(F)F)ccc23)CC1 [compound 826075]
15	O=C(NC1CCCCC1)[C@@H]1C[C@H]1CN1CCN(c2csc3cc(C(F)(F)F)ccc23)CC1 [compound 826076]
88.9	COc1ccc(CNC(=O)[C@@H]2C[C@H]2CN2CCN(c3csc4cc(C(F)(F)F)ccc34)CC2)c(OC)c1 [compound 826077]

Same assay, conditions: Table 2 part the 10th table; read-out: d3Ki

Ki [nM]	SMILES
118	C[C@@]1(C(=O)N2CCCCC2)C[C@H]1CN1CCN(c2csc3cc(C(F)(F)F)ccc23)CC1 [compound 825891]
5.4	O=C([C@@H]1CCC[C@H]1N1CCN(c2csc3cc(F)ccc23)CC1)N1CCCCC1 [compound 826056]

Same assay, conditions: read-out: d3Ki

Ki [nM]	SMILES
152	O=C(NCc1ccccn1)[C@@H]1CCC[C@H]1N1CCN(c2csc3cc(F)ccc23)CC1 [compound 825825]
54.8	O=C(NC1CC1)[C@@H]1CCC[C@H]1N1CCN(c2csc3cc(F)ccc23)CC1 [compound 825827]
21.8	CN(C)c1ccc(CNC(=O)[C@@H]2CCC[C@H]2N2CCN(c3csc4cc(F)ccc34)CC2)cc1 [compound 825828]
64.6	O=C(NCc1ccccc1)[C@@H]1CCC[C@H]1N1CCN(c2csc3cc(F)ccc23)CC1 [compound 825830]
60.3	O=C(NCc1cccs1)[C@@H]1CCC[C@H]1N1CCN(c2csc3cc(F)ccc23)CC1 [compound 825832]
22.4	Cc1cccc(CNC(=O)[C@@H]2CCC[C@H]2N2CCN(c3csc4cc(F)ccc34)CC2)c1 [compound 825900]
90.9	O=C(NC1CCC1)[C@@H]1CCC[C@H]1N1CCN(c2csc3cc(F)ccc23)CC1 [compound 826057]
45.2	CC(NC(=O)[C@@H]1CCC[C@H]1N1CCN(c2csc3cc(F)ccc23)CC1)c1ccccc1 (stereo partly drawn) [compound 826058]
27.1	O=C(NCc1cccc2ccccc12)[C@@H]1CCC[C@H]1N1CCN(c2csc3cc(F)ccc23)CC1 [compound 826059]
40.2	O=C(NC1CCCCC1)[C@@H]1CCC[C@H]1N1CCN(c2csc3cc(F)ccc23)CC1 [compound 826060]
